Data taken from patent US20250360092A1, “Carotenoid-fortified Yogurt and Methods For Preparing The Same” (Maravilla, LLC, priority 2024, published 2025).

Format: physicochemical
Conditions: start of the thirty-five-day storage at 4° C.
Protocol: Lutein and Zeaxanthin Stability Over Shelf Life. […] The stability may be influenced by the way lutein was added to the yogurt. When lutein is introduced post-fermentation via stirring, it tends to degrade in a concentration-dependent manner. […] This phenomenon may be attributed to the consumption of oxygen in milk by Lactobacillus bulgaricus during fermentation. […] The samplings were weighted into […] falcon tubes and 4 milliliters of tetrahydrofuran containing 0.1% was added to each sampling. The mixtures were vortexed for 30 seconds and centrifuged at 3500 grams for 5 minute at 20° C. […] The three extracts were then pooled and dried in the vacuum centrifuge at less than 30° C. and the dry residue was resuspended in 10 milliliters of acetone and read in the spectrophotometer. […] Carotenoid profiling, relative purity and quantification were carried out in a HPLC 1260 Infinity Series (Agilent Technologies, Santa Clara, CA, USA), equipped with a diode array detector, quaternary pump, degasser, thermostatically-controlled column compartment, and a thermostatically-controlled autosampler. […] For carotenoid quantification in human serum, 100 microliters of a sampling were injected. […] Differences in serum carotenoid concentration at each time point were assessed by paired t-test.

| Compound | starting concentration in the lutein-fortified yogurt sample |
| --- | --- |
| CC1=C[C@H](O)CC(C)(C)[C@H]1/C=C/C(C)=C/C=C/C(C)=C/C=C/C=C(C)/C=C/C=C(C)/C=C/C1=C(C)C[C@@H](O)CC1(C)C [Lutein, lutein] | 14.60±0.41 mg/100 g |
| CC1=C(/C=C/C(C)=C/C=C/C(C)=C/C=C/C=C(C)/C=C/C=C(C)/C=C/C2=C(C)C[C@@H](O)CC2(C)C)C(C)(C)C[C@H](O)C1 [Zeaxanthin, zeaxanthin] | 0.71±0.02 mg/100 g |
